Experimental data as given in paper PMC8607422, “Development of a novel TLR8 agonist for cancer immunotherapy” (Molecular Biomedicine, 2020).

Assays:
CYP 2D6 = target: T1, CYP 2D6 (Homo sapiens, UniProt P10635); assay: CYP inhibition assay in human liver microsomes; type: in vitro ADME
T1 construct: using human liver microsomes (BD Gentest); tissue BD Gentest; host or cells: human liver microsomes
Method: CYP inhibition assay was conducted to evaluate the inhibitive potential of the compounds on CYP 1A2, 2C9, 2C19, 2D6 and 3A4 using human liver microsomes (BD Gentest). Curve-fitting was performed to calculate IC50 using a Sigmoidal (non-linear) dose-response model using GraphPad Prism (GraphPad Software Inc.).

hTLR7 = target: T2, hTLR7 (Homo sapiens, UniProt Q9NYK1); assay: HEK-Blue hTLR7 SEAP reporter agonist assay; type: cell-based; conditions: HEK-Blue hTLR7 cells, highest concentration 50 μM
T2 construct: host or cells: HEK-Blue hTLR7
T2 sequence (Q9NYK1 27-1049): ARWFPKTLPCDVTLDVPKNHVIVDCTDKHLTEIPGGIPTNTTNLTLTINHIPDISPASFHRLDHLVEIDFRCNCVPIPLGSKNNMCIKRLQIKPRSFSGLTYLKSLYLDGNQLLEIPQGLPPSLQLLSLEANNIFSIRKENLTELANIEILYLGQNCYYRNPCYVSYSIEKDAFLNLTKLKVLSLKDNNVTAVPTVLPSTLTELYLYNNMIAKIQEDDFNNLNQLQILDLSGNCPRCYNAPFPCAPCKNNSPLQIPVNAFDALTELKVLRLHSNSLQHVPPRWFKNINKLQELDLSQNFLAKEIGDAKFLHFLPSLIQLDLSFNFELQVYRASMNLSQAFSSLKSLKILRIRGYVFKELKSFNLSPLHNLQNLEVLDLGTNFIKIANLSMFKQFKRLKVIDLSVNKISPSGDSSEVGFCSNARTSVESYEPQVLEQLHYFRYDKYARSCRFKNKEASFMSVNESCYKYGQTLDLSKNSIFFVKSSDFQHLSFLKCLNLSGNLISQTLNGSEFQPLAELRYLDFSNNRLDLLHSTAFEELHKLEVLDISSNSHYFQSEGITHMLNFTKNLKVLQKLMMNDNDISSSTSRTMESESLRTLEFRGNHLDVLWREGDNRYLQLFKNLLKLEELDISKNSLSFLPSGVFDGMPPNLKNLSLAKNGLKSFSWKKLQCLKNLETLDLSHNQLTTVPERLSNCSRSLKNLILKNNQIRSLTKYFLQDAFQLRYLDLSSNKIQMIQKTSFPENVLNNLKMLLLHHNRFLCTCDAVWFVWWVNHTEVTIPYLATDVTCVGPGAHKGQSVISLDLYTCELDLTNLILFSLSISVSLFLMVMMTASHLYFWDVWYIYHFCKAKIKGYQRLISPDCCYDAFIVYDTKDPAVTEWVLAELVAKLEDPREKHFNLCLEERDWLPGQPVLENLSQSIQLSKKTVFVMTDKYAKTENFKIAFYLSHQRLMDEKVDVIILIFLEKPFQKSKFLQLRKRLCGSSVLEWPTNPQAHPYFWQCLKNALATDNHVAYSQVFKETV
From the text: HEK-Blue™ hTLR4, 7, 8 and 9 cell lines were purchased from InvivoGen (Hong Kong). The cells express the human TLR gene and NF-κB/AP-1-inducible SEAP (secreted embryonic alkaline phosphatase) reporter gene. SEAP levels produced upon TLR stimulation can be determined by QUANTI-Blue™. In the cell-based assay, the main reagents used were QUANTI-Blue™ (InvivoGen) and ATPlite 1 Step (Perkin Elmer). The main instruments used were the microplate reader SpectraMax 340PC (Molecular Device) and Envision (Perkin Elmer). Motolimod and DN052 were synthesized in house. […] The compounds were in 10 mM stock solution in DMSO and stored at − 20°C. The compounds were serially diluted in the concentration range from 0.5 nM to 15 μM (up to 50 μM in the hTLR4, hTLR7 and hTLR9 assays) and added to 96-well plates. DMSO was used as the negative control. LPS-EK, R848, motolimod and ODN2006 were used as the positive control for TLR4, 7, 8 and 9, respectively. The cells were cultured and treated with the compounds at 37°C, 5%CO2 for 24 h. […] After 1.5 h of incubation, the optical density was measured using the spectrophotometer at 650 nm in the microplate reader of SpectraMax 340PC. The cell viability of each well was determined using ATPlite 1 Step following the manufacturer’s instruction. The luminescence signal in each well of plates was measured in the microplate reader of Envision.

hERG = target: T3, hERG (Homo sapiens, UniProt Q12809); assay: hERG assay, whole-cell recordings with automated QPatch in CHO cells; type: cell-based
T3 construct: expressed in transfected cells; host or cells: CHO
Method: hERG assay was conducted using CHO cell line stably transduced with hERG cDNA. Whole-cell recordings were performed using automated QPatch (Sophion Biosciences). Data were analyzed using Assay Software provided by Sophion (assay software V5.0), Microsoft Excel and GraphPad Prism.

serum cytokines = assay: In vivo cytokine induction in monkeys; set-up: species or system cynomolgus monkeys; conditions: monkey, 1 mg/kg sc single dose
Method: Cynomolgus monkeys were purchased from Guangxi Xiongsen Primate Laboratory Animals Co., Ltd. (Guangxi, China) and three 3–4 years old male monkeys were used in each group. […] A single dose of motolimod was sc administered at 1 mg/kg. Blood samples were collected pre-dose, 6 and 24 h post-dose. Levels of cytokines including IFN-γ, IL-10, IL-1β, IL-6, IL-8, MIP-1α, MIP-1β, G-CSF, IL-12p40, IL-12p70 and TNF-α were measured using MSD ECL cytokine assay kit following the manufacturer’s protocol.

[1] = set-up: method as in Northfelt, et al., [39]; conditions: human, sc 0.1 mg/m^2; ref Northfelt, et al., [39]; cited from earlier work

T3 sequence (Q12809 whole entry): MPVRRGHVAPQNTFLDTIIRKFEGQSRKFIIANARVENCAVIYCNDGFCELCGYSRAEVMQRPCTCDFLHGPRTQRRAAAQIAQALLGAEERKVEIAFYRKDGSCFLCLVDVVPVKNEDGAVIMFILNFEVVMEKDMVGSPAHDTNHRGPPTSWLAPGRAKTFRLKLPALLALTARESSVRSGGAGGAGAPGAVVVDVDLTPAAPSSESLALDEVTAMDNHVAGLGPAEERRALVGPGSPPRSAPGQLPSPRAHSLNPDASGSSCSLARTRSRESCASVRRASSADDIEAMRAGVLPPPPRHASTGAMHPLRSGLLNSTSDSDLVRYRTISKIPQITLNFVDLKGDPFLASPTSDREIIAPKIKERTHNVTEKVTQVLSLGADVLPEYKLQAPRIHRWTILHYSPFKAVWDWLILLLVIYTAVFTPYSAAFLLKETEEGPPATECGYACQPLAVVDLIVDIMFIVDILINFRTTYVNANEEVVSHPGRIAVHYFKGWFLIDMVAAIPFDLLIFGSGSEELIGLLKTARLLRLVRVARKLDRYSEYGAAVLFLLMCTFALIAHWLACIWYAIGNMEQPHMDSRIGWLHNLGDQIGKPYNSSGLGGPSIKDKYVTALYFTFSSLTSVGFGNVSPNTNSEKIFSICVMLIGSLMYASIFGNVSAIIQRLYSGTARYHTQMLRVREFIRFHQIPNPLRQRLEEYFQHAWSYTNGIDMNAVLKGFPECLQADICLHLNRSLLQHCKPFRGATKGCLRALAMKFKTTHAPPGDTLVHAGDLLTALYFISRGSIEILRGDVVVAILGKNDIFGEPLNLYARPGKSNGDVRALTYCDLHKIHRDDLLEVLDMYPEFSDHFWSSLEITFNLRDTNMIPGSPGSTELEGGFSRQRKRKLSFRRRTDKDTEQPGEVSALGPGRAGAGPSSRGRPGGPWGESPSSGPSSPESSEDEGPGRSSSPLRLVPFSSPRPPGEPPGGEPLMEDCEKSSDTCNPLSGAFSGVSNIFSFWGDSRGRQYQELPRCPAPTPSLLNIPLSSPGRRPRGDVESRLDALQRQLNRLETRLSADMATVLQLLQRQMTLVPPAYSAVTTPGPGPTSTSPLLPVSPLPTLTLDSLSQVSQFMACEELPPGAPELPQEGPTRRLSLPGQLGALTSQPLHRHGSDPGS
T1 sequence (P10635 whole entry): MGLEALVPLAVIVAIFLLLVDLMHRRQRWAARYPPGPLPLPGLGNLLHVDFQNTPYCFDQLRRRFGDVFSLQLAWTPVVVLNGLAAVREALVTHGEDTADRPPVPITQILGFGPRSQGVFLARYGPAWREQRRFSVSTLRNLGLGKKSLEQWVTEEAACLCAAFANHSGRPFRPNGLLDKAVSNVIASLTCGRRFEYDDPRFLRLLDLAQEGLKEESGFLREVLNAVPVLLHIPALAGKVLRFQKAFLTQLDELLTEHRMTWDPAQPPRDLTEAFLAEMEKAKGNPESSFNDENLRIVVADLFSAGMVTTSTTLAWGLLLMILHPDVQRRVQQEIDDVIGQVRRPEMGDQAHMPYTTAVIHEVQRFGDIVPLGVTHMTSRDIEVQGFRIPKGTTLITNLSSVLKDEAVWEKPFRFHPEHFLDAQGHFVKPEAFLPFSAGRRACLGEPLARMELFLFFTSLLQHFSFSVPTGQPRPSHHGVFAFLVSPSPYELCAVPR

With CCCN(CCC)C(=O)C1=Cc2ccc(-c3ccc(C(=O)N4CCCC4)cc3)cc2N=C(N)C1 [Motolimod, motolimod] as the compound, how does the IC50 (CYP 2D6) read?
Its IC50 is greater than 10 µM.

And the EC50 (hTLR7)?
The EC50 was 19.8 µM.

And the IC50 (hERG)?
Its IC50 is 3.84 µM.

And the “serum G-CSF, Mean Values” (serum cytokines; 0 h (pre-dose))?
Its value is 7.135 pg/mL.

What about the “serum IFN-γ, Mean Values” (serum cytokines; 0 h (pre-dose)) of the same compound?
Its value is 1.017 pg/mL.

What about the “serum IL-1β, Mean Values” (serum cytokines; 0 h (pre-dose)) of the same compound?
The value was 0.000 pg/mL.

And the “serum IL-6, Mean Values” (serum cytokines; 0 h (pre-dose))?
Its value is 1.510 pg/mL.

What about the “serum IL-8, Mean Values” (serum cytokines; 0 h (pre-dose)) of the same compound?
Its value is 0.000 pg/mL.

And the “serum IL-10, Mean Values” (serum cytokines; 0 h (pre-dose))?
Its value is 0.271 pg/mL.

And the “serum IL-12p40, Mean Values” (serum cytokines; 0 h (pre-dose))?
Its value is 131.413 pg/mL.

What about the “serum IL-12p70, Mean Values” (serum cytokines; 0 h (pre-dose)) of the same compound?
Its value is 2.582 pg/mL.

And the “serum MIP-1α, Mean Values” (serum cytokines; 0 h (pre-dose))?
Its value is 71.636 pg/mL.

And the “serum MIP-1β, Mean Values” (serum cytokines; 0 h (pre-dose))?
Its value is 93.266 pg/mL.

What about the “serum G-CSF, Mean Values” (serum cytokines; 6 h) of the same compound?
Its value is 345.154 pg/mL.

And the “serum IFN-γ, Mean Values” (serum cytokines; 6 h)?
Its value is 0.500 pg/mL.

What about the “serum IL-1β, Mean Values” (serum cytokines; 6 h) of the same compound?
Its value is 0.286 pg/mL.

What about the “serum IL-6, Mean Values” (serum cytokines; 6 h) of the same compound?
Its value is 342.661 pg/mL.

And the “serum IL-8, Mean Values” (serum cytokines; 6 h)?
Its value is 0.378 pg/mL.

And the “serum IL-10, Mean Values” (serum cytokines; 6 h)?
The value was 15.222 pg/mL.

And the “serum IL-12p40, Mean Values” (serum cytokines; 6 h)?
Its value is 305.212 pg/mL.

What about the “serum IL-12p70, Mean Values” (serum cytokines; 6 h) of the same compound?
Its value is 5.154 pg/mL.

And the “serum MIP-1α, Mean Values” (serum cytokines; 6 h)?
The value was 227.638 pg/mL.

What about the “serum MIP-1β, Mean Values” (serum cytokines; 6 h) of the same compound?
Its value is 1655.094 pg/mL.

And the “serum G-CSF, Mean Values” (serum cytokines; 24 h)?
The value was 32.168 pg/mL.

And the “serum IFN-γ, Mean Values” (serum cytokines; 24 h)?
Its value is 0.462 pg/mL.

And the “serum IL-1β, Mean Values” (serum cytokines; 24 h)?
Its value is 0.099 pg/mL.

What about the “serum IL-6, Mean Values” (serum cytokines; 24 h) of the same compound?
Its value is 12.185 pg/mL.

What about the “serum IL-8, Mean Values” (serum cytokines; 24 h) of the same compound?
The value was 0.119 pg/mL.

And the “serum IL-10, Mean Values” (serum cytokines; 24 h)?
The value was 1.347 pg/mL.

What about the “serum IL-12p40, Mean Values” (serum cytokines; 24 h) of the same compound?
The value was 118.409 pg/mL.

And the “serum IL-12p70, Mean Values” (serum cytokines; 24 h)?
Its value is 3.305 pg/mL.

And the “serum MIP-1α, Mean Values” (serum cytokines; 24 h)?
The value was 87.417 pg/mL.

And the “serum MIP-1β, Mean Values” (serum cytokines; 24 h)?
The value was 221.881 pg/mL.

What about the “AUC(0-t)” value [1] of the same compound?
The value was 2.99 ng·h/mL.

And the Cmax [1]?
Its Cmax is 1.52 ng/mL.

What about the Tmax [1] of the same compound?
Its Tmax is 0.53 h.

And the t1/2 [1]?
The t1/2 was 1.73 h.
